From publication PMC4821887, “Identification of chemicals that mimic transcriptional changes associated with autism, brain aging and neurodegeneration” (Nature Communications, 2016)

System: mouse cortical cultures
Assay: RNA-seq differential expression (DESeq) against matched vehicle
Type: cell-based
Design: key to MeanFenamidone Bcl11b / MeanFenamidone Slc12a4 / MeanFenamidone Abca1 / MeanFenamidone Hmox1 / MeanFenamidone Il1rap / MeanFenamidone Cyba / MeanFenamidone Narf / MeanFenamidone Bnip3 / MeanFenamidone Amotl2 / MeanFenamidone Gad2 / MeanFenamidone Vsnl1 / MeanFenamidone Fam178a: DESeq mean of counts over RefSeq exons
Experimental: Figure 4 Cluster 2 chemicals alter expression of a common set of genes. […] RNA-seq was performed in quadruplicate after treating cortical cultures with fenamidone (10 μM) or pyraclostrobin (0.1 μM) for 24 h (n=3 biological replicates) and compared with matched vehicle controls using DESeq to detect differentially expressed genes, listed in Supplementary Data 4.
Cultures were treated with the non-cytotoxic dose of each chemical, by exchanging half of the original medium with chemicals at 2 × concentration in prewarmed feeding medium, on DIV 7 for 24 h in 12-well plates at a density of 5 × 10^5 cells per well. RNA was isolated using RNeasy plus mini kit (Cat. #74134, Qiagen). […]. Samples were further assessed for quality using either an Agilent Bioanalyzer 2100 or TapeStation 2200 to obtain a RIN. RIN values exceeding 7 were used for sequencing. RNA samples were used to generate and barcode complementary DNA libraries using the TruSeq RNA Library Preparation Kit at the UNC High Throughput Sequencing Facility. Pools of 24 multiplexed samples were sequenced per lane on an Illumina HiSeq 2500 using 50-bp paired-end reads.
RNA-seq reads were filtered using TagDust and aligned to the reference mouse genome (mm9) with TopHat using default parameters. Reads aligning to ribosomal RNA genes were removed. Transcript abundance was estimated by computing Reads per kilobase per million mapped reads (RPKM) using RefSeq gene models aggregated by gene symbol. For differential expression analyses, raw counts over RefSeq exons were used, and then were compared across samples using DESeq[62].

## CSC1=N[C@@](C)(c2ccccc2)C(=O)N1Nc1ccccc1 [fenamidone]
Gene Dclk1
  MeanFenamidone: 2436.98
  log2FoldChange: -1.095
Gene Dcxr
  MeanFenamidone: 235.507
  log2FoldChange: 3.058
Gene Diras1
  MeanFenamidone: 170.873
  log2FoldChange: -1.25
Gene Dlg2
  MeanFenamidone: 695.294
  log2FoldChange: -1.3121
Gene Dlx1as, DESeq mean, 4 reps
  MeanFenamidone Dlx1as: 22.8822
Gene Dlx1as, vs vehicle, 4 reps
  log2FoldChange Dlx1as: -2.397
Gene Dnaja1
  MeanFenamidone: 313.407
  log2FoldChange: -1.061
Gene Dnm3, DESeq mean, 4 reps
  MeanFenamidone Dnm3: 187.1
Gene Dnm3, vs vehicle, 4 reps
  log2FoldChange Dnm3: -1.706
Gene Dpp10, DESeq mean, 4 reps
  MeanFenamidone Dpp10: 62.8613
Gene Dpp10, vs vehicle, 4 reps
  log2FoldChange Dpp10: -1.776
Gene Dzank1, DESeq mean, 4 reps
  MeanFenamidone Dzank1: 112.179
Gene Dzank1, vs vehicle, 4 reps
  log2FoldChange Dzank1: -1.428
Gene Eda2r, DESeq mean, 4 reps
  MeanFenamidone Eda2r: 436.944
Gene Eda2r, vs vehicle, 4 reps
  log2FoldChange Eda2r: 1.783
Gene Efemp1, DESeq mean, 4 reps
  MeanFenamidone Efemp1: 94.4395
Gene Efemp1, vs vehicle, 4 reps
  log2FoldChange Efemp1: 2.414
Gene Egfr
  MeanFenamidone: 148.93
  log2FoldChange: 1.836
Gene Eif4ebp1, DESeq mean, 4 reps
  MeanFenamidone Eif4ebp1: 125.436
Gene Eif4ebp1, vs vehicle, 4 reps
  log2FoldChange Eif4ebp1: 2.511
Gene Elavl2, DESeq mean, 4 reps
  MeanFenamidone Elavl2: 207.006
Gene Elavl2, vs vehicle, 4 reps
  log2FoldChange Elavl2: -1.527
Gene Elovl1, DESeq mean, 4 reps
  MeanFenamidone Elovl1: 104.754
Gene Elovl1, vs vehicle, 4 reps
  log2FoldChange Elovl1: 2.586
Gene Enox1
  MeanFenamidone: 25.4463
  log2FoldChange: -1.757
Gene Epas1
  MeanFenamidone: 154.593
  log2FoldChange: 2.42
Gene Ephx1, DESeq mean, 4 reps
  MeanFenamidone Ephx1: 789.724
Gene Ephx1, vs vehicle, 4 reps
  log2FoldChange Ephx1: 1.959
Gene Epm2aip1
  MeanFenamidone: 711.569
  log2FoldChange: -0.9776
Gene Etfb
  MeanFenamidone: 102.831
  log2FoldChange: 1.903
Gene Evc
  MeanFenamidone: 45.1413
  log2FoldChange: 1.984
Gene F2r, DESeq mean, 4 reps
  MeanFenamidone F2r: 1216.46
Gene F2r, vs vehicle, 4 reps
  log2FoldChange F2r: 2.012
Gene F3, DESeq mean, 4 reps
  MeanFenamidone F3: 324.561
Gene F3, vs vehicle, 4 reps
  log2FoldChange F3: 2.464
Gene Fam78b
  MeanFenamidone: 119.127
  log2FoldChange: -1.289
Gene Fam163b, DESeq mean, 4 reps
  MeanFenamidone Fam163b: 135.664
Gene Fam163b, vs vehicle, 4 reps
  log2FoldChange Fam163b: -1.491
Gene Fam178a, DESeq mean, 4 reps
  MeanFenamidone Fam178a: 780.387
Gene Fam178a, vs vehicle, 4 reps
  log2FoldChange Fam178a: 1.493
Gene Fat1, DESeq mean, 4 reps
  MeanFenamidone Fat1: 2188.76
Gene Fat1, vs vehicle, 4 reps
  log2FoldChange Fat1: 1.677
Gene Fbn1, DESeq mean, 4 reps
  MeanFenamidone Fbn1: 159.478
Gene Fbn1, vs vehicle, 4 reps
  log2FoldChange Fbn1: 2.303
Gene Fbxo9, DESeq mean, 4 reps
  MeanFenamidone Fbxo9: 32.2944
Gene Fbxo9, vs vehicle, 4 reps
  log2FoldChange Fbxo9: -2.181
Gene Fermt2, DESeq mean, 4 reps
  MeanFenamidone Fermt2: 437.255
Gene Fermt2, vs vehicle, 4 reps
  log2FoldChange Fermt2: 1.474
Gene Fgf13
  MeanFenamidone: 224.473
  log2FoldChange: -1.202
Gene Fgfr3, DESeq mean, 4 reps
  MeanFenamidone Fgfr3: 309.362
Gene Fgfr3, vs vehicle, 4 reps
  log2FoldChange Fgfr3: 1.548
Gene Fkbp9, DESeq mean, 4 reps
  MeanFenamidone Fkbp9: 763.489
Gene Fkbp9, vs vehicle, 4 reps
  log2FoldChange Fkbp9: 1.78
Gene Flna, DESeq mean, 4 reps
  MeanFenamidone Flna: 4335.97
Gene Flna, vs vehicle, 4 reps
  log2FoldChange Flna: 1.783
Gene Flnb, DESeq mean, 4 reps
  MeanFenamidone Flnb: 1183.24
Gene Flnb, vs vehicle, 4 reps
  log2FoldChange Flnb: 2.364
Gene Flnc, DESeq mean, 4 reps
  MeanFenamidone Flnc: 270.515
Gene Flnc, vs vehicle, 4 reps
  log2FoldChange Flnc: 3.121
Gene Fn1, DESeq mean, 4 reps
  MeanFenamidone Fn1: 2242.75
Gene Fn1, vs vehicle, 4 reps
  log2FoldChange Fn1: 2.874
Gene Fzd7
  MeanFenamidone: 201.665
  log2FoldChange: 1.705
Gene Gad1, DESeq mean, 4 reps
  MeanFenamidone Gad1: 102.047
Gene Gad1, vs vehicle, 4 reps
  log2FoldChange Gad1: -2.011
Gene Gad2, DESeq mean, 4 reps
  MeanFenamidone Gad2: 49.2241
Gene Gad2, vs vehicle, 4 reps
  log2FoldChange Gad2: -2.6503
Gene Gas6
  MeanFenamidone: 1188.11
  log2FoldChange: 1.393
Gene Gas7
  MeanFenamidone: 704.19
  log2FoldChange: -1.128
Gene Gdf15, DESeq mean, 4 reps
  MeanFenamidone Gdf15: 107.196
Gene Gdf15, vs vehicle, 4 reps
  log2FoldChange Gdf15: 3.431
Gene Glis2
  MeanFenamidone: 157.775
  log2FoldChange: 1.455
Gene Gls, DESeq mean, 4 reps
  MeanFenamidone Gls: 297.391
Gene Gls, vs vehicle, 4 reps
  log2FoldChange Gls: -1.569
Gene Gm5424, DESeq mean, 4 reps
  MeanFenamidone Gm5424: 1293.84
Gene Gm5424, vs vehicle, 4 reps
  log2FoldChange Gm5424: 2.267
Gene Gng2
  MeanFenamidone: 1878.98
  log2FoldChange: -1.047
Gene Gpnmb, DESeq mean, 4 reps
  MeanFenamidone Gpnmb: 552.991
Gene Gpnmb, vs vehicle, 4 reps
  log2FoldChange Gpnmb: 3.791
Gene Gpr22
  MeanFenamidone: 61.8379
  log2FoldChange: -1.6935
Gene Gpr88, DESeq mean, 4 reps
  MeanFenamidone Gpr88: 81.4648
Gene Gpr88, vs vehicle, 4 reps
  log2FoldChange Gpr88: -2.268
Gene Gpx1, DESeq mean, 4 reps
  MeanFenamidone Gpx1: 550.81
Gene Gpx1, vs vehicle, 4 reps
  log2FoldChange Gpx1: 1.571
Gene Grik3, DESeq mean, 4 reps
  MeanFenamidone Grik3: 96.3695
Gene Grik3, vs vehicle, 4 reps
  log2FoldChange Grik3: -2.234
Gene Grin1os, Fenamidone, 4 reps, vs matched vehicle
  MeanFenamidone (DESeq mean normalized counts): 76.6399
Gene Grm5
  MeanFenamidone: 468.182
  log2FoldChange: -1.139
Gene Gss, DESeq mean, 4 reps
  MeanFenamidone Gss: 95.0873
Gene Gss, vs vehicle, 4 reps
  log2FoldChange Gss: 2.127
Gene Gstm1, DESeq mean, 4 reps
  MeanFenamidone Gstm1: 533.415
Gene Gstm1, vs vehicle, 4 reps
  log2FoldChange Gstm1: 2.03
Gene Gtse1
  MeanFenamidone: 113.042
  log2FoldChange: 1.636
Gene Gxylt2, DESeq mean, 4 reps
  MeanFenamidone Gxylt2: 58.8169
Gene Gxylt2, vs vehicle, 4 reps
  log2FoldChange Gxylt2: 2.562
Gene Hbegf, DESeq mean, 4 reps
  MeanFenamidone Hbegf: 726.667
Gene Hbegf, vs vehicle, 4 reps
  log2FoldChange Hbegf: 2.744
Gene Hivep2
  MeanFenamidone: 554.938
  log2FoldChange: -0.989
Gene Hmox1, DESeq mean, 4 reps
  MeanFenamidone Hmox1: 1318.42
Gene Hmox1, vs vehicle, 4 reps
  log2FoldChange Hmox1: 3.72
Gene Hspg2, DESeq mean, 4 reps
  MeanFenamidone Hspg2: 1082.79
Gene Hspg2, vs vehicle, 4 reps
  log2FoldChange Hspg2: 3.326
Gene Icam1, DESeq mean, 4 reps
  MeanFenamidone Icam1: 359.44
Gene Icam1, vs vehicle, 4 reps
  log2FoldChange Icam1: 2.082
Gene Igdcc4, DESeq mean, 4 reps
  MeanFenamidone Igdcc4: 745.33
Gene Igdcc4, vs vehicle, 4 reps
  log2FoldChange Igdcc4: 1.594
Gene Il1rap, DESeq mean, 4 reps
  MeanFenamidone Il1rap: 123.358
Gene Il1rap, vs vehicle, 4 reps
  log2FoldChange Il1rap: 1.873
Gene Inf2, DESeq mean, 4 reps
  MeanFenamidone Inf2: 157.523
Gene Inf2, vs vehicle, 4 reps
  log2FoldChange Inf2: 1.741
Gene Irs1
  MeanFenamidone: 506.425
  log2FoldChange: 1.154
Gene Itga3, DESeq mean, 4 reps
  MeanFenamidone Itga3: 452.545
Gene Itga3, vs vehicle, 4 reps
  log2FoldChange Itga3: 2.403
Gene Itga5, DESeq mean, 4 reps
  MeanFenamidone Itga5: 86.8768
Gene Itga5, vs vehicle, 4 reps
  log2FoldChange Itga5: 3.801
Gene Itga6, DESeq mean, 4 reps
  MeanFenamidone Itga6: 547.54
Gene Itga6, vs vehicle, 4 reps
  log2FoldChange Itga6: 1.506
Gene Itga7, DESeq mean, 4 reps
  MeanFenamidone Itga7: 82.7144
Gene Itga7, vs vehicle, 4 reps
  log2FoldChange Itga7: 2.577
Gene Itgav, DESeq mean, 4 reps
  MeanFenamidone Itgav: 659.409
Gene Itgav, vs vehicle, 4 reps
  log2FoldChange Itgav: 1.938
Gene Itgb1, DESeq mean, 4 reps
  MeanFenamidone Itgb1: 2073.15
Gene Itgb1, vs vehicle, 4 reps
  log2FoldChange Itgb1: 1.665
Gene Kcnc2
  MeanFenamidone: 16.7005
  log2FoldChange: -1.836
Gene Kcnh3, DESeq mean, 4 reps
  MeanFenamidone Kcnh3: 28.6602
Gene Kcnh3, vs vehicle, 4 reps
  log2FoldChange Kcnh3: -2.172
Gene Kcnv1, DESeq mean, 4 reps
  MeanFenamidone Kcnv1: 52.8142
Gene Kcnv1, vs vehicle, 4 reps
  log2FoldChange Kcnv1: -2.08
Gene Kctd12
  MeanFenamidone: 687.782
  log2FoldChange: -1.125
Gene Kdelc2, DESeq mean, 4 reps
  MeanFenamidone Kdelc2: 146.187
Gene Kdelc2, vs vehicle, 4 reps
  log2FoldChange Kdelc2: 1.909
Gene Kif1c, DESeq mean, 4 reps
  MeanFenamidone Kif1c: 782.878
Gene Kif1c, vs vehicle, 4 reps
  log2FoldChange Kif1c: 2.167
